Paper PMC12040169 (PLOS Biology, 2025)

assay: in vitro; conditions: human, hela cells, % viability

Structure (SMILES)	viability at 28.5 h, 10 µM
CCN1CCN(C(=O)Cc2cn(C)c3ccccc23)CC1 [CBK200254]	96.9%
Cc1ccc2c(CC(=O)N(C)CCN(C)C)c(C)[nH]c2c1C [CBK282157]	102%
Cc1nc(CC(=O)O)c(-c2ccccc2)s1 [CBK264988]	110%
Cn1cc(I)c(C(=O)NNC(=S)Nc2ccc(S(N)(=O)=O)cc2)n1 [CBK267066]	106%
N#Cc1ccccc1NC(=O)C(CC(=O)O)NCc1ccccc1 (stereo not shown) [CBK286907]	83.6%
CCn1c2ccccc2c2ccc(/C=N/NC(=O)c3ccc(O)cc3O)cc21 [CBK262948]	56.9%
O=C(Nc1sc2c(c1CN1CCCCCC1)CCCC2)c1ccccc1 [CBK261811]	91%
Cc1ccc(-n2c3nc(=O)n(C)c(=O)c-3cc3ccccc32)cc1 [CBK288007]	103%
CC1=NN(c2ccccc2F)C(=O)C1 [CBK067773]	96.8%
COc1ccc(C)cc1NC(=O)C1CC(=O)Nc2ncnn21 (stereo not shown) [CBK270274]	99.5%
COc1ccc(C(C)C)cc1-c1nccnc1NCc1ccco1 [CBK036672]	98%
COc1ccc(CNC(N)=O)cc1 [CBK013588]	104%
CC(=O)Nc1cccc(NC(=O)N2CCNC(=O)C2)c1 [CBK155863]	77.7%
CN(C)C(=O)c1ccc(-c2cnc(OCC3CCN(C(=O)OC(C)(C)C)CC3)cn2)cc1F [CBK175076]	118%
CCCn1c(-c2ccccc2OC(F)(F)F)n[nH]c1=O [CBK074238]	110%
CCN1CC2(CCC1=O)CCN(Cc1cccc(CCN)c1)CC2 [CBK306823]	100%
Cc1ccc2[nH]c(C3CCCCN3C(=O)c3cscn3)nc2c1 (stereo not shown) [CBK283999]	96.6%
O=C1OC(c2ccc(N3C(=O)c4cccc5cccc(c45)C3=O)cc2)(c2ccc(N3C(=O)c4cccc5cccc(c45)C3=O)cc2)c2ccccc21 [CBK261845]	95.3%
Cc1cc2nn(-c3ccccc3)nc2cc1NC(=O)c1ccc(-c2cccc([N+](=O)[O-])c2)o1 [CBK263859]	99.6%
O=C(NCc1ccc2c(c1)OCO2)c1cnc(-c2ccc(Cl)cc2)c(-c2ccco2)c1 [CBK037547]	98.3%
Cc1cccc(C(=O)Oc2ccc(C(c3c(C)n[nH]c3O)c3c(C)n[nH]c3O)cc2)c1 [CBK264804]	102%
CCNC(=O)Nc1cc2cccnc2nc1-c1ccc(S(C)(=O)=O)cc1 [CBK070706]	93.3%

Structure (SMILES)	viability at 28.5 h, 10 µM
COc1cc2c(cc1OC)C1(CCN(CCc3c[nH]c4ccccc34)CC1)NC(=O)C2 [CBK039992]	99.3%
COc1ccc([C@@]23CC[C@@H](NC(=O)c4ccc(F)c(F)c4)C[C@@H]2CN(C)C3)cc1OC [CBK083504T]	90.2%
COc1cc(C(c2c[nH]c3ccccc23)c2c[nH]c3ccccc23)c(Br)cc1OC(C)=O [CBK266051]	107%
O=C(COc1ccccc1)NC(/C=C/c1ccccc1)c1cc(Cl)c2cccnc2c1O (stereo not shown) [CBK263994]	104%
NS(=O)(=O)c1ccc(CCNC(=O)COc2ccc(Cl)cc2Cl)cc1 [CBK265694]	90.2%
C=CCNC(=O)CCc1nc(-c2cccc(OC)c2)no1 [CBK268981]	99.2%
COCc1cn([C@H]2CO[C@H]3[C@@H]2OC[C@H]3OC)nn1 [CBK289490]	89.9%
O=c1cc(N2CCN(CC3CCOC3)CC2)c(-c2ccccc2)n[nH]1 (stereo not shown) [CBK306957]	91.5%
Cc1cccc(C(=O)NC(CC(C)C)c2nnc3n2CCNCC3)n1 (stereo not shown) [CBK306866]	108%
O=C(c1cscn1)N1C2CCC1CC(O)(c1ccco1)C2 (stereo not shown) [CBK284135]	105%
O=C(NCc1cccnc1)c1ccccc1-n1cccc1 [CBK149602]	92.3%
CCOC(=O)C(NS(=O)(=O)c1ccc(NC(C)=O)c(Cl)c1)C(=O)OCC [CBK043996]	96.2%
O=S1(=O)N=C(N2CCN(Cc3ccc4c(c3)OCO4)CC2)c2ccccc21 [CBK266064]	104%
CCNc1nc(=S)[nH]c2sc3c(c12)CCC(C)C3 (stereo not shown) [CBK086242]	89.2%
COc1ccc(Cl)cc1S(=O)(=O)NC(C)C(=O)O (stereo not shown) [CBK270233]	106%
CNC(=O)c1ccc(-c2ccc(CNC(=O)C3(c4cccc(F)c4)CCCC3)cc2)nc1C [CBK286013]	105%
O=C(CCn1c(C(F)(F)F)cc2cccnc21)NC1CCCOC1 (stereo not shown) [CBK284867]	109%
O=C(CCS(=O)(=O)c1ccccc1)Nc1ccc(N2CCNCC2)c2ccccc12 [CBK028408T]	92.6%
CCOc1ccc(C(N)CC(=O)O)c2ccccc12 (stereo not shown) [CBK287120]	89.1%
CC(C)CN1CCC2(CC=CCN(Cc3ccc(F)cc3)C2=O)CC1 [CBK285521]	116%
COC(=O)/C=C/c1cn(C2OC(CO)C(O)C2O)c(=O)[nH]c1=O (stereo not shown) [CBK201339]	106%
COc1cncc(-c2cc(NC3CCCCC3)ncn2)c1 [CBK090903]	96.5%

Structure (SMILES)	viability at 28.5 h, 10 µM
Cc1noc([C@@H]2C[C@H](NC(=O)Nc3cccc(C#N)c3)CN2C)n1 [CBK288873]	104%
CC(C)[C@H]1CN(Cc2ccco2)CCN1C(=O)N1CCOCC1 [CBK284273]	82.2%
COc1ccc(-c2noc(-c3cnccn3)n2)c(OC)c1 [CBK287878]	83.6%
O=C(CCN1CCc2ccccc2C1)Nc1cccc(F)c1 [CBK264282]	103%
COc1cccc(-c2cnc3[nH]c(=O)n(Cc4ccc(Cl)cc4)c3n2)c1 [CBK064596]	111%
O=C(CC(NC1CCCC1)C(=O)O)Nc1cccc(Cl)c1 (stereo not shown) [CBK266831]	105%
CC1(C#N)CCCN(Cc2c[nH]nc2C(=O)O)C1 (stereo not shown) [CBK307010]	80.1%
CCOC(=O)c1cnn(C2CCCN(Cc3cc[nH]n3)C2)c1 (stereo not shown) [CBK305125]	87.4%
CCNC(=O)N1CCC(Oc2cc(C)ccc2F)(C(=O)O)CC1 [CBK307147]	87.9%
OCC1CCN(Cc2cnn(C3CCCCC3)c2)C1 (stereo not shown) [CBK283086]	88.4%
Cn1ccc2ccc(C(=O)Nc3nccs3)cc21 [CBK287910]	106%
CC(=O)N1CCCc2cc(C(O)CN3CCCC(C)(C)C3)ccc21 (stereo not shown) [CBK282143]	94.3%
O=C(c1ncoc1-c1ccc(F)cc1)N1CCSCC1 [CBK282380]	105%
CS(=O)(=O)N[C@H]1C[C@H]2C(=O)Nc3ccc(-c4cccs4)cc3C(=O)N2C1 [CBK289359]	95.7%
CC(C)NC(=O)N[C@H]1CCN2C(=O)c3cc(-c4ccc(F)cc4F)ccc3NC(=O)[C@H]12 [CBK289346]	86.8%
C=CCNC(=O)N[C@H]1[C@H](O)[C@@H](N2CCN(c3ccccc3OC)CC2)[C@@H]2OC[C@H]1O2 [CBK288818]	89.7%
Cc1cc(F)c(S(=O)(=O)N2CCN(C)CC2)cc1NC(=O)c1cc2ccccc2o1 [CBK034419C]	94%
O=C1CC2(CCCC2)C(=O)N1CCNc1nccc(C(F)(F)F)n1 [CBK028777]	97.4%
Cc1nc2ccc(NC(=O)CC3CCN(S(=O)(=O)c4cccc(F)c4)CC3)cc2[nH]1 [CBK285903]	88.8%
O=C(Nc1nc2ccccc2s1)c1cccnc1Cl [CBK071983]	108%
Cc1cc(Cc2ccccc2F)cc(C2CCN(C(=O)c3nc4ccc(F)cc4[nH]3)CC2)n1 [CBK285932]	120%
CCc1nc(CN2CCN(C(=O)Nc3ccccc3C)CC2)cs1 [CBK305817]	87.5%

Structure (SMILES)	viability at 28.5 h, 10 µM
CN1CCN(c2ccc(NC(=S)NC(=O)c3cc4ccccc4o3)cc2)CC1 [CBK266240]	95.5%
Brc1ccc2[nH]c3c(c2c1)CCNC31CCN(CCOc2ccccc2)C1 (stereo not shown) [CBK083578]	75.5%
CC(Oc1ccc(Cl)cc1Cl)C(=O)NCCc1cccc(Cl)c1 (stereo not shown) [CBK265489]	84.2%
CCN(C#N)c1nc(NC)nc(OC)n1 [CBK265697]	98.1%
COC(=O)Nc1ccc2c(c1)N(C(=O)CCN1CCOCC1)c1ccccc1CC2 [CBK261284C]	95.9%
c1ccc(CCN2CCN(CC3COc4ccccc4O3)CC2)cc1 (stereo not shown) [CBK138342]	86%
CN(CCN1CCCCC1)C(=O)C1Cc2cc(Cl)ccc2O1 (stereo not shown) [CBK282640]	95.4%
Cc1[nH]c2c(C)cccc2c1CC(=O)N(C)CCN(C)C [CBK282724]	82.6%
Cc1csc2c(C3CCN(C(=O)c4cnn(C)c4)CC3)nc(C)n12 [CBK285250]	89.7%
C[C@H](NC(=O)N1CCN(C(=O)CCc2c[nH]c3ccccc23)CC1)C(=O)O [CBK286774]	97.7%
Cc1ccc(C(=O)Nc2ccc3[nH]ccc3c2)cc1Cl [CBK159677]	85.5%
COc1ccc(CNC(=O)CN2C(=O)[C@@H]3CCCN3C(=O)c3ccccc32)cc1 [CBK286322]	89.7%
CCn1cc(NC(=O)NC2CCN(c3ncccc3C#N)CC2)c(C)n1 [CBK307213]	93.1%
O=c1[nH]c2ncc(-c3ccsc3)nc2n1C1CCCCC1 [CBK064574]	92.6%
COc1cc2ncnc(NCc3ccccc3)c2cc1OC [CBK287984]	79.7%
Cc1nc2c(c(=O)[nH]1)CN(C(=O)Cc1c(F)cccc1Cl)CC2 [CBK283589]	92.1%
COC(=O)c1cc(NS(=O)(=O)c2cc(Cl)ccc2Cl)cc(C(=O)OC)c1 [CBK077853]	105%
Nc1cccc(-c2nc(NC(=O)c3ccncc3)cnc2-c2ccc(F)c(Cl)c2)c1 [CBK037573]	114%
CC(C)[C@H](CO)Nc1cncc(-c2ccc(F)cc2F)n1 [CBK065883]	92.3%
O=C(O)c1ccc(Cl)c(S(=O)(=O)NCc2ccco2)c1 [CBK304575]	105%
Cc1c(C(=O)N2CCN(C3CCCCC3)C(=O)C2)[nH]c2ccccc12 [CBK282539]	99.3%

same assay, conditions: human, hela cells, % viability, bulk resorufin, single well

Structure (SMILES)	viability at 28.5 h, 10 µM
COc1cccc2c1OC1(CCN(C(=O)c3cccnc3)CC1)OC2 [CBK061070]	95.7%
